In patent publication US8476408B2, “Unacylated ghrelin and analogs as therapeutic agents for vascular remodeling in diabetic patients and treatment of cardiovascular disease” (Alize Pharma SAS, priority 2008, dated 2013):
Where no end group is shown, it is not given here.

What was measured:
CAC [1] = experiment: Arterial specification of recovered human CAC (Q-RT-PCR of Ephrin B2, Notch1, Notch4, EphB4); type: in vivo; conditions: cells from treated patients cultured with IL-3; FIG. 3D
Protocol: (§1) RNA isolation and quantitative real-time PCR—CAC from diabetic patients, healthy subjects and mice treated with UAG or saline were cultured in EGM-2 medium. Human arterial and venous cells were used as a positive controls. mRNA quantification was performed by Q-RT-PCR, as previously described (Ref. 24). The relative expression of Ephrin B2, Notch1, Notch4 and EphB4 were calculated by using comparative threshold cycle methods. The human and murine primer sequences used were described (Refs. 25, 26).

CAC [2] = experiment: Arterial commitment of CAC recovered from treated mice (Q-RT-PCR); type: in vivo; conditions: CAC from UAG-challenged mice cultured with IL-3; FIG. 4D
Protocol: as §1
(§2) Isolation and Culture of CAC from C57BU6J, C57BL/6J ob/ob mice and NOD/SCID mice—6 weeks old C57BL/6J (wt) and ob/ob mice, 7 and 17 weeks old NOD/SCID mice were purchased from Charles River Lab (Lecco, Italy). Animals were anesthetized by intraperitoneal injection with Avertin (100 mg/50ml ip). Blood samples were drawn from left ventricular, as described by Hoff (Ref. 27). Peripheral blood MNC were isolated by Ficoll density-gradient centrifugation. Recovered cells were washed twice Isolated cells were resuspended and were cultured on 20 μg/ml fibronectin-coated dishes in EGM-2 BulletKit Medium. In selected experiments, the isolated CAC were cultured in EBM-2 medium supplemented with 10 ng/ml of IL-3.

CAC [3] = experiment: Detection of ROS in CAC (DCF-DA assay, FACS); type: cell-based, human
Protocol: Peripheral-blood mononuclear cells (PB-MNC) isolated by Fycoll Histopaque 1077 (Sigma) were resuspended in 20% FBS 199 Medium and plated on fibronectin-coated dishes (Biocoat, Becton Dickinson Labware) as described by Hill et al. (Ref. 19). Human UAG studies were performed on CAC recovered from normal donors and diabetic patients. The purity of sorted cells was assessed by FACS analysis (Ref. 20). For experiments, the isolated CAC were cultured under 5% CO2 at 37° C. for 4 days on 20 μg/ml fibronectin-coated dishes in EGM-2 medium containing 10% FBS, hydrocortisone, human Fibroblast Growth Factor, Vascular Endothelial Growth Factor, Insulin Growth Factor 1, ascorbic acid, human Epidermal Growth Factor, gentamicin and amphotericin-B (Cambrex, Walkersville, Md., USA) alone or in combination with 1 μM UAG and 1.2 mg/ml AGE. In selected experiments, isolated CAC were cultured in EBM-2 medium (Cambrex, Walkersville, Md., USA) supplemented with 10 ng/ml of IL-3. FACS was used to analyze their phenotype (anti-CD45, anti-CD31, anti-CD105, anti-CD14 antibodies were used) (Ref. 22).
Detection of ROS—DCF-DA (0.5 μM final concentration) was added to CAC in the indicated culture conditions. At the indicated times, the cells were subjected to FACS analysis and processed as previously described (Ret. 22). H2O2 was used as positive control.

CAC [4] = experiment: Expansion (S phase) of CAC recovered from treated mice; type: in vivo; conditions: CAC from UAG-challenged mice, IL-3; FIG. 4C
Protocol: Flow Cytometry—To analyze CAC cell-cycle progression, cells recovered from diabetic, healthy subjects, NOD/SCID, ob/ob and wt mice, were cultured in EBM-2 supplemented with IL-3 (10 ng/ml), FACS analysis was performed as previously described (Ref. 20). Cell surface molecules were evaluated by flow cytometry as previously described (Ref. 24). Frequency of marker-positive cells is expressed as mean±standard deviation (SD).
as §2

CAC [5] = experiment: Matrigel-plug assay of de novo vessel formation by CAC from treated diabetic patients; type: in vivo, SCID mice
Protocol: Matrigel-plug assay—For murine angiogenesis assay, untreated or UAG-treated CAC, obtained from type 2 diabetic patients, were counted and resuspended in DMEM (4×10^6 in 250 μL DMEM). Cells were chilled in ice, labelled with fluorescent dye carboxyfluorescein diacetate succinimidyl ester (CSFE, Molecular Probes), added to 250 μL Matrigel containing of IL-3 (100 ng/ml) at 4° C., and injected sc. in the abdominal paramedian region of 7 week old NOD/SCID mice (5 mice per group). After 15 days, mice were killed and Matrigel plugs were recovered, fixed in 10% buffered formalin and embedded in paraffin for immunohistochemistry.
Immunohistochemistry and immunofluorescence—For immunohistochemistry, sections from paraffin-embedded blocks of Matrigel plugs were collected onto poly-lysine-coated slides. Endogenous peroxidase activity was blocked with 6% H2O2 for 8 minutes at room temperature. To detect cells labelled with fluorescent dye CSFE, anti-Fluorescein/Oregon Green polyclonal Abs (Molecular Probes) were applied to slides overnight at 4° C. […] The percentage of positive cells was counted in 4 non-sequential sections for each experiment at ×40 magnification. […] The number of MHC II or HLA I positive vessels was determined by counting 10 randomly selected fields in three different samples.

HIT-T15 β-cells = experiment: Survival of cytokine-treated HIT-T15 β-cells (MTT); type: cell-based; conditions: cytokines (IFN-γ/TNF-α/IL-1β), peptides 1 nM to 100 nM
Protocol: The survival effect of UAG (6-13) (SEQ ID NO: 6), UAG (8-13) (SEQ ID NO: 7), UAG (8-12) (SEQ ID NO: 8), UAG (8-11) (SEQ ID NO: 12), UAG (9-12) (SEQ ID NO: 9) and UAG (9-11) (SEQ ID NO: 10) was assessed in cytokine-treated HIT-T15 β-cells. […] The protective effects of peptides UAG (8-13) (SEQ ID NO: 7) and UAG (8-12) (SEQ ID NO: 8) were found similar to those of UAG (1-14) (SEQ ID NO: 2) and UAG (1-18) (SEQ ID NO: 3). A peptide made of the inverse sequence of UAG (1-14) (SEQ ID NO: 2) and named UAG (14-1) (SEQ ID NO: 11), was used as negative control for these experiments. […] These effects were however lower than those of UAG (6-13) (SEQ ID NO: 6).

Substance: 1-NH2Gly-Ser-Ser-Phe-Leu-Ser-Pro-Glu-His-Gln-Arg-Val-Gln-Gln-Arg-Lys-Glu-Ser-Lys-Lys-Pro-Pro-Ala-Lys-Leu-Gln-Pro-Arg-28 (GSSFLSPEHQRVQQRKESKKPPAKLQPR; ends and bridges not checked; listed as Homo sapiens) [UAG]
- arterial specification (Ephrin B2, Notch1, Notch4 vs EphB4) (CAC [1]): able to undergo arterial specification
- arterial commitment of recovered CAC (CAC [2]): acquire arterial commitment
- level of ROS production in AGE-cultured cells (CAC [3]; AGE-cultured CAC, FIG. 1C, 1F): reduced
- intracellular ROS production in diabetic-recovered cells (CAC [3]; CAC isolated from type 2 diabetic patients, FIG. 1D): reduced intracellular ROS production
- baseline level of ROS production (CAC [3]; compared to untreated cells, FIG. 1B, 1E): drastically reduces the baseline level of ROS production
- expansion of recovered CAC (CAC [4]): could be expanded
- formation of functional vessels by labelled CAC (CAC [5]; CAC from UAG-treated diabetic patients, Matrigel plugs with IL-3, 15 days, FIG. 4E): formed functional vessels
- origin of neo-vessels (human HLA Class I vs mouse MHC II) (CAC [5]; immunofluorescence of Matrigel plugs, FIG. 4F): majority of vessels are lined by human HLA Class I positive cells
- survival effect on cytokine-induced cell death (HIT-T15 β-cells): comparable
